Results from patent publication US20070071692A1, “Aerosol powder formulation” (priority 2005, published 2007).

Assay: Particle size of unmilled and jet milled Compound X (optical microscopy, Microtrac, Aerosizer, SEM)
Type: physicochemical
Source text: In the studies described below the aerosol performance of micronized Compound X with three different grades of lactose made specifically for inhalation in an Spinhaler® is compared. The carriers studied were milled lactose for inhalation (Respitose™ ML003), sieved lactose for inhalation (Respitose SV003) and granulated lactose for inhalation (Respitose LS243). Each carrier was characterized for particle size, flow properties and morphology. Jet milled Compound X, with an average particle size of 2.8 microns was used in the studies. […] Blends were manufactured with 4% w/w drug loading at a scale of 1 g. Capsules were then filled with 25 mg of blend to achieve a 1 mg nominal dose. Each blend was characterized for blend uniformity, dose uniformity and aerodynamic particle size distribution. Granulated lactose produced the weakest drug aerosolization compared to milled and sieved lactose. […] The delivered shot weight was 92% of target with an in-vitro respirable fraction of 26% and an emitted dose of 34%. The formulation is considered appropriate for animal model studies use however optimization of the formulation and the blending characteristics will be pursued following results from the in-vivo animal studies. Three jet milled samples of Compound X observed using X-ray powder diffraction (XRPD) and thermogravimetry (TGA) that the jet milled samples had similar properties to the unmilled lots. The samples retained their crystalline form. By SEM, it was observed that the jet milled drug was smaller in particle size compared to the unmilled drug, while maintaining the needle-like morphology. Drug particle size ranged from ca. 2-25 μm in length and ca. 2 μm in width with agglomerates up to 50 μm in diameter. Only one of the jet milled lots was used for the described studies below.

In the case of `O=C(NC1CC1)c1cn(-c2cccc(C#Cc3ccc[n+]([O-])c3)c2)c2ncccc2c1=O` [Milled API, N-cyclopropyl-1-[3-(1-oxido-3-pyridinylethynyl)phenyl]-1,4-dihydro[1,8]naphthyridin-4-one-3-carboxamide], the “Drug particle size, length” value (SEM, jet milled) is reported as 2-25 μm, the “Drug particle size, width” value (SEM, jet milled) is reported as “ca. 2 μm” and the “agglomerates, diameter” value (SEM, jet milled) is reported as “up to 50 μm”. The average particle size (jet milled drug used in the studies) was 2.8 microns.
